{"source": "patent US20120238549A1", "about": "“Nuclear Hormone Receptor Modulators” (ABBOTT LABORATORIES, priority 2011, published 2012)"}
{"target": "T1, Glucocorticoid Receptor (GR) (Homo sapiens, UniProt P04150)", "T1 construct": "purchased Invitrogen P2893", "T1 sequence (P04150 1-777)": "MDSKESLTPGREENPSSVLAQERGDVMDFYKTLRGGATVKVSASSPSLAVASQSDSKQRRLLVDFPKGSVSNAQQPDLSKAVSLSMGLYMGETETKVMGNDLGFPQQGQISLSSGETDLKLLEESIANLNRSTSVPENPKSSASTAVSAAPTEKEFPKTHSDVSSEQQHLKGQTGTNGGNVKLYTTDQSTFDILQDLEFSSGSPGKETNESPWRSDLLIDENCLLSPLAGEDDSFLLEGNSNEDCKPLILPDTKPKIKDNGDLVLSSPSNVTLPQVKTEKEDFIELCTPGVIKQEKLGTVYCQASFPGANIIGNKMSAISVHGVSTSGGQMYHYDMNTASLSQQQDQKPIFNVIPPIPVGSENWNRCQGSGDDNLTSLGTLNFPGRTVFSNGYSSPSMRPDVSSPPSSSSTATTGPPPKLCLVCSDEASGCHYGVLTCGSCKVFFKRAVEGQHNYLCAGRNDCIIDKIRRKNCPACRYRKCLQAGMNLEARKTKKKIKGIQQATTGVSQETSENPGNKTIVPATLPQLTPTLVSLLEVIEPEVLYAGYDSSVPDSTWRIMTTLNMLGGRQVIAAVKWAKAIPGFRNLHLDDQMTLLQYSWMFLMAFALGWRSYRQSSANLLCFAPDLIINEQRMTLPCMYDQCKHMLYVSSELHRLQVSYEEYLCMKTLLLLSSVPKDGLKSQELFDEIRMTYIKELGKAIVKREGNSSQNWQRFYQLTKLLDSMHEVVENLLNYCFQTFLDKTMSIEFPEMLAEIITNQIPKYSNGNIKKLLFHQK", "assay": "GR Florescence Polarization Assay (PolarScreen Glucocorticoid Receptor Competitor Assay, Red)", "settings": "Fluorescense polarization binding ranges; competition with fluorescent glucocorticoid, incubated overnight at 4° C.", "protocol": "GR Florescence Polarization Assay Florescence polarization assays were carried out using the PolarScreen™ Glucocorticoid Receptor Competitor Assay, Red from Invitrogen (P2893). The assay buffer was prepared according to the manufacturer's protocol and used to dilute the fluorescent glucocorticoid and GR. Compounds were prepared and serial diluted 1:4 in DMSO. Compound, fluorescent glucocorticoid and GR were added in a final volume of 20 μL and incubated overnight at 4° C. Fluorescent polarization was measured on the Perkinelmer Envision®.", "units": {"IC50": "µM"}}
{"smiles": "Cc1ncccc1NC(=O)c1ccc2c(c1)CCCC1CC(O)(COC(C)C(F)(F)F)CCC21Cc1ccccc1", "note": "(mixture of isomers) [Example 100]", "IC50": "< 0.1"}
{"smiles": "Cc1ncccc1NC(=O)c1ccc2c(c1)CCC[C@@H]1C[C@@](O)(C(F)(F)F)CC[C@@]21Cc1ccccc1", "note": "(racemic) [Example 3, (7aR,9R,11aS)-11a-Benzyl-9-hydroxy-9-trifluoromethyl-6,7,7a,8,9,10,11,11a-octahydro-5H-dibenzo[a,c]cycloheptene-3-carboxylic acid (2-methyl-pyridin-3-yl)-amide; compound with (7aS,9S,11aR)-11a-benzyl-9-hydroxy-9-trifluoromethyl-6,7,7a,8,9,10,11,11a-octahydro-5H-dibenzo[a,c]cycloheptene-3-carboxylic acid (2-methyl-pyridin-3-yl)-amide]", "IC50": "< 0.1"}
{"smiles": "Cc1ncccc1NC(=O)c1ccc2c(c1)CCC[C@@H]1CC(=O)CC[C@@]21Cc1ccccc1", "note": "(racemic) [Example 8, (7aR,11aS)-11a-Benzyl-9-oxo-6,7,7a,8,9,10,11,11a-octahydro-5H-dibenzo[a,c]cycloheptene-3-carboxylic acid (2-methyl-pyridin-3-yl)-amide; compound with (7aS,11aR)-11a-benzyl-9-oxo-6,7,7a,8,9,10,11,11a-octahydro-5H-dibenzo[a,c]cycloheptene-3-carboxylic acid (2-methyl-pyridin-3-yl)-amide]", "IC50": "< 0.1"}
{"smiles": "Cc1ncccc1NC(=O)c1ccc2c(c1)CCC[C@H]1CC(=O)CC[C@@]21Cc1ccccc1", "note": "(racemic) [Example 11, (7aS,11aS)-11a-Benzyl-9-oxo-6,7,7a,8,9,10,11,11a-octahydro-5H-dibenzo[a,c]cycloheptene-3-carboxylic acid (2-methyl-pyridin-3-yl)-amide; compound with (7aR,11aR)-11a-benzyl-9-oxo-6,7,7a,8,9,10,11,11a-octahydro-5H-dibenzo[a,c]cycloheptene-3-carboxylic acid (2-methyl-pyridin-3-yl)-amide]", "IC50": "< 0.1"}
{"smiles": "Cc1ncccc1NC(=O)c1ccc2c(c1)CCC[C@H]1C[C@@H](O)CC[C@@]21Cc1ccccc1", "note": "(racemic) [Example 16, (7aS,9S,11aS)-11a-Benzyl-9-hydroxy-6,7,7a,8,9,10,11,11a-octahydro-5H-dibenzo[a,c]cycloheptene-3-carboxylic acid (2-methyl-pyridin-3-yl)-amide; compound with (7aR,9R,11aR)-11a-benzyl-9-hydroxy-6,7,7a,8,9,10,11,11a-octahydro-5H-dibenzo[a,c]cycloheptene-3-carboxylic acid (2-methyl-pyridin-3-yl)-amide]", "IC50": "0.1 to 1"}
{"smiles": "Cc1ncccc1NC(=O)c1ccc2c(c1)CCC[C@H]1C[C@H](O)CC[C@@]21Cc1ccccc1", "note": "(racemic) [Example 17, (7aS,9R,11aS)-11a-Benzyl-9-hydroxy-6,7,7a,8,9,10,11,11a-octahydro-5H-dibenzo[a,c]cycloheptene-3-carboxylic acid (2-methyl-pyridin-3-yl)-amide; compound with (7aR,9S,11aR)-11a-benzyl-9-hydroxy-6,7,7a,8,9,10,11,11a-octahydro-5H-dibenzo[a,c]cycloheptene-3-carboxylic acid (2-methyl-pyridin-3-yl)-amide]", "IC50": "< 0.1"}
{"smiles": "COC[C@@]1(O)CC[C@@]2(Cc3ccccc3)c3ccc(C(=O)Nc4cccnc4C)cc3CCC[C@H]2C1", "note": "(racemic) [Example 18, (7aS,9R,11aS)-11a-Benzyl-9-hydroxy-9-methoxymethyl-6,7,7a,8,9,10,11,11a-octahydro-5H-dibenzo[a,c]cycloheptene-3-carboxylic acid (2-methyl-pyridin-3-yl)-amide; compound with (7aR,9S,11aR)-11a-benzyl-9-hydroxy-9-methoxymethyl-6,7,7a,8,9,10,11,11a-octahydro-5H-dibenzo[a,c]cycloheptene-3-carboxylic acid (2-methyl-pyridin-3-yl)-amide]", "IC50": "< 0.1"}
{"smiles": "Cc1ncccc1NC(=O)c1ccc2c(c1)CCCC1=C[C@](C)(O)CC[C@]12Cc1ccccc1", "note": "(racemic) [Example 19, (9R,11aS)-11a-Benzyl-9-hydroxy-9-methyl-6,7,9,10,11,11a-hexahydro-5H-dibenzo[a,c]cycloheptene-3-carboxylic acid (2-methyl-pyridin-3-yl)-amide; compound with (9S,11aR)-11a-benzyl-9-hydroxy-9-methyl-6,7,9,10,11,11a-hexahydro-5H-dibenzo[a,c]cycloheptene-3-carboxylic acid (2-methyl-pyridin-3-yl)-amide]", "IC50": "< 0.1"}
{"smiles": "CC[C@@]1(O)CC[C@@]2(Cc3ccccc3)c3ccc(C(=O)Nc4cccnc4C)cc3C(=O)CC[C@H]2C1", "note": "(racemic) [Example 23, (7aS,9R,11aS)-11a-Benzyl-9-ethyl-9-hydroxy-5-oxo-6,7,7a,8,9,10,11,11a-octahydro-5H-dibenzo[a,c]cycloheptene-3-carboxylic acid (2-methyl-pyridin-3-yl)-amide; compound with (7aR,9S,11aR)-11a-benzyl-9-ethyl-9-hydroxy-5-oxo-6,7,7a,8,9,10,11,11a-octahydro-5H-dibenzo[a,c]cycloheptene-3-carboxylic acid (2-methyl-pyridin-3-yl)-amide]", "IC50": "< 0.1"}
{"smiles": "CC#C[C@]1(O)CC[C@@]2(Cc3ccccc3)c3ccc(O)cc3CCC[C@H]2C1", "note": "(racemic) [Example 28, (3S,4aS,11bS)-11b-Benzyl-3-prop-1-ynyl-2,3,4,4a,5,6,7,11b-octahydro-1H-dibenzo[a,c]cycloheptene-3,9-diol; compound with (3R,4aR,11bR)-11b-benzyl-3-prop-1-ynyl-2,3,4,4a,5,6,7,11b-octahydro-1H-dibenzo[a,c]cycloheptene-3,9-diol]", "IC50": "0.1 to 1"}
{"smiles": "CC#C[C@]1(O)CC[C@@]2(Cc3ccccc3)c3ccc(C(=O)Nc4cccnc4C)cc3CCC[C@H]2C1", "note": "(racemic) [Example 29, (7aS,9S,11aS)-11a-Benzyl-9-hydroxy-9-prop-1-ynyl-6,7,7a,8,9,10,11,11a-octahydro-5H-dibenzo[a,c]cycloheptene-3-carboxylic acid (2-methyl-pyridin-3-yl)-amide; compound with (7aR,9R,11aR)-11a-benzyl-9-hydroxy-9-prop-1-ynyl-6,7,7a,8,9,10,11,11a-octahydro-5H-dibenzo[a,c]cycloheptene-3-carboxylic acid (2-methyl-pyridin-3-yl)-amide]", "IC50": "0.1 to 1"}
{"smiles": "Cc1ncccc1NC(=O)c1ccc2c(c1)CCC[C@H]1C[C@](C)(O)CC[C@@]21Cc1ccccc1", "note": "(racemic) [Example 30, (7aS,9R,11aS)-11a-Benzyl-9-hydroxy-9-methyl-6,7,7a,8,9,10,11,11a-octahydro-5H-dibenzo[a,c]cycloheptene-3-carboxylic acid (2-methyl-pyridin-3-yl)-amide; compound with (7aR,9S,11aR)-11a-benzyl-9-hydroxy-9-methyl-6,7,7a,8,9,10,11,11a-octahydro-5H-dibenzo[a,c]cycloheptene-3-carboxylic acid (2-methyl-pyridin-3-yl)-amide]", "IC50": "< 0.1"}
{"smiles": "CCC[C@@]1(O)CC[C@@]2(Cc3ccccc3)c3ccc(C(=O)Nc4cccnc4C)cc3CCC[C@H]2C1", "note": "(racemic) [Example 31, (7aS,9R,11aS)-11a-Benzyl-9-hydroxy-9-propyl-6,7,7a,8,9,10,11,11a-octahydro-5H-dibenzo[a,c]cycloheptene-3-carboxylic acid (2-methyl-pyridin-3-yl)-amide; compound with (7aR,9S,11aR)-11a-benzyl-9-hydroxy-9-propyl-6,7,7a,8,9,10,11,11a-octahydro-5H-dibenzo[a,c]cycloheptene-3-carboxylic acid (2-methyl-pyridin-3-yl)-amide]", "IC50": "< 0.1"}
{"smiles": "C#C[C@]1(O)CC[C@@]2(Cc3ccccc3)c3ccc(C(=O)Nc4cccnc4C)cc3CCC[C@H]2C1", "note": "(racemic) [Example 32, (7aS,9S,11aS)-11a-Benzyl-9-ethynyl-9-hydroxy-6,7,7a,8,9,10,11,11a-octahydro-5H-dibenzo[a,c]cycloheptene-3-carboxylic acid (2-methyl-pyridin-3-yl)-amide; compound with (7aR,9R,11aR)-11a-benzyl-9-ethynyl-9-hydroxy-6,7,7a,8,9,10,11,11a-octahydro-5H-dibenzo[a,c]cyclo heptene-3-carboxylic acid (2-methyl-pyridin-3-yl)-amide]", "IC50": "< 0.1"}
